Assay results as given in ChEMBL document CHEMBL1201862, “PubChem BioAssay data set” (2004).
Activity calls are given as the source filed them.

Columns and labels:
[1] = biological target: Beta-galactosidase (Escherichia coli, UniProt Q8VNN2); test: PubChem AID 485352; format: functional
[2] = biological target: T1, Type-1 angiotensin II receptor (Homo sapiens, UniProt P30556); test: AT1 receptor antagonists, dose response, selectivity assay for APJ receptor antagonist project, cell-based, uHTS hits (AID 463214); format: functional;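 also: antagonist potency against angiotensin II stimulated AT1 response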
T1 sequence (P30556 whole entry): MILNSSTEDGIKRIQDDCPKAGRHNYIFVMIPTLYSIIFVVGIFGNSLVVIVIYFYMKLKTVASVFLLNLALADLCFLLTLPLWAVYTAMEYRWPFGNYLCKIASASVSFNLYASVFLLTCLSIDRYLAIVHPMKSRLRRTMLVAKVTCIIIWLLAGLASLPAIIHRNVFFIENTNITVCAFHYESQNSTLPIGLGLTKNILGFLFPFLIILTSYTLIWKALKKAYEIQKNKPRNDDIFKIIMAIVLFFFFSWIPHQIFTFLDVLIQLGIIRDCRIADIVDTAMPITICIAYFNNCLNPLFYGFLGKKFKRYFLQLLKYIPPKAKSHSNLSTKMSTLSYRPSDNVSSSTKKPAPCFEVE

[3] = biological target: T2, Fatty acid synthase (Homo sapiens, UniProt P49327); test: FAS thioesterase domain inhibitors, dose response, biochemical, kinetic fluorescence intensity (AID 624326); format: functional;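 also: rate of fluorescence rise from hydrolysis of a fluorogenic O-methyl fluorescein ester substrate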
T2 sequence (P49327 whole entry, the tested form may be a part): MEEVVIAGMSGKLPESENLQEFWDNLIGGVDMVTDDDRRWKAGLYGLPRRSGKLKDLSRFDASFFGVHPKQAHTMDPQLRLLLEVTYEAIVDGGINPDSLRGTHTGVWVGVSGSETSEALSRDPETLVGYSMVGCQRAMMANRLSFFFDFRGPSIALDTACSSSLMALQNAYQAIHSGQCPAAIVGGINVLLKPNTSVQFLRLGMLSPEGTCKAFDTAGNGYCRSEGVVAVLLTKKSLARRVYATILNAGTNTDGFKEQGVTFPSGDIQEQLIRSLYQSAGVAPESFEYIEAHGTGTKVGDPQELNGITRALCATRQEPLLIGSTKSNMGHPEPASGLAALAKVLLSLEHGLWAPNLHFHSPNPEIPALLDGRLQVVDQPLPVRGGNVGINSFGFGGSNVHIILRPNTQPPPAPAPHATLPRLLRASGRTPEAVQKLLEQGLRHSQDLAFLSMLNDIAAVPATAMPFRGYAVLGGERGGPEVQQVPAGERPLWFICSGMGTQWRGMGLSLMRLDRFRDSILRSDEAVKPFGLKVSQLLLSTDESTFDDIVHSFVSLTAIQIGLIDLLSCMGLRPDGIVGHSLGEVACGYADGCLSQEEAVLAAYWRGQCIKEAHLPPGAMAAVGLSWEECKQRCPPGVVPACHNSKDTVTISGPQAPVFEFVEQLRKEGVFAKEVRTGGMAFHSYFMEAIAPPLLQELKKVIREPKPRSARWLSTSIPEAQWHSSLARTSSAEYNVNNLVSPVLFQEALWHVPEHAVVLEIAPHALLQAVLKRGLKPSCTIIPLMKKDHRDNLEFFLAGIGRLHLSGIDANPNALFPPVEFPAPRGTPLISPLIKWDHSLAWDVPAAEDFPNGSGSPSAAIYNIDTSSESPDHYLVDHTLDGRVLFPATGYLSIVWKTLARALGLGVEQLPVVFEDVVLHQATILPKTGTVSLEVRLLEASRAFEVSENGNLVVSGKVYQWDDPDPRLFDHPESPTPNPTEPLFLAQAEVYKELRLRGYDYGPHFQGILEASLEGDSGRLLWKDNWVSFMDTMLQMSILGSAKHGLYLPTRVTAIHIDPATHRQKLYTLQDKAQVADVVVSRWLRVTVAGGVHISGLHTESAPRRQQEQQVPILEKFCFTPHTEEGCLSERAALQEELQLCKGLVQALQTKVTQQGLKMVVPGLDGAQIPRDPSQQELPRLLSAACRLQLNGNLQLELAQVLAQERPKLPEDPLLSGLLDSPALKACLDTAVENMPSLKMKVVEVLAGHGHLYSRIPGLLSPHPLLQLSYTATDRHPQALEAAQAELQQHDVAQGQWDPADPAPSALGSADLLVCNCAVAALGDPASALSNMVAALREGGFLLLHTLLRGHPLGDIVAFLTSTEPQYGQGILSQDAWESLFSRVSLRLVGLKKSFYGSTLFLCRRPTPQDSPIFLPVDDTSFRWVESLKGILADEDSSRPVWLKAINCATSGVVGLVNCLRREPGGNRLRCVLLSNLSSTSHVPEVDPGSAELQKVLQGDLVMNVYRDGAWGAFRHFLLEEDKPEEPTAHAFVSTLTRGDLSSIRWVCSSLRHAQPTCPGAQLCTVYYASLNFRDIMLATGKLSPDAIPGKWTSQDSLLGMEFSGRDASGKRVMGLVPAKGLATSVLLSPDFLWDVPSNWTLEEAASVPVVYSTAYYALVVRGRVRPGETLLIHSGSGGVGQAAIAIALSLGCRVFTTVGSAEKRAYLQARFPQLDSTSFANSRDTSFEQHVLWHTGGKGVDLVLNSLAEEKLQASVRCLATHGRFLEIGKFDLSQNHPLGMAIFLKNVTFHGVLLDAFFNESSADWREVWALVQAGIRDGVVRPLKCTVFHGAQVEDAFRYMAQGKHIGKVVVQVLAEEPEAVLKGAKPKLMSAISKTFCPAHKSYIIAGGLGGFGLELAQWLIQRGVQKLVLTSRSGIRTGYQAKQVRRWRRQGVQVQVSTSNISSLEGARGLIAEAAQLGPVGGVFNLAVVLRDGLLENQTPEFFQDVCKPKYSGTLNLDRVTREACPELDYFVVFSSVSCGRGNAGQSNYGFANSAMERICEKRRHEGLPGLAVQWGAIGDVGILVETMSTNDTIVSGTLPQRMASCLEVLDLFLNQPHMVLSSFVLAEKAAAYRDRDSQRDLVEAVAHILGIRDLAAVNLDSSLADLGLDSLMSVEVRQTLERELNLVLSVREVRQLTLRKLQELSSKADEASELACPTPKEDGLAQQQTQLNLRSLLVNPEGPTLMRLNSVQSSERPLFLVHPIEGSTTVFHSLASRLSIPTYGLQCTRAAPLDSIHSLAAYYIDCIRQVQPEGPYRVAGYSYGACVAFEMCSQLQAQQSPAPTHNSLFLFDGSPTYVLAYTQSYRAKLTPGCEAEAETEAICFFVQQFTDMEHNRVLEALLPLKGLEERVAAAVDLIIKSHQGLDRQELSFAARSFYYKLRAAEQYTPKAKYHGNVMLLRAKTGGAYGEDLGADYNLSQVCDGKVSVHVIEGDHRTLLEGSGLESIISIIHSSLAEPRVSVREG

[4] = biological target: T2, Fatty acid synthase; test: FAS thioesterase domain inhibitors, dose response, biochemical, endpoint fluorescence intensity, uHTS hits (AID 624327); format: functional;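 also: fluorescence from hydrolysis of an O-methyl fluorescein acyl ester substrate by the enzyme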
[5] = biological target: T3, Carboxy-terminal domain RNA polymerase II polypeptide A small phosphatase 1 (Homo sapiens, UniProt Q9GZU7); test: inhibitors of CTDSP1, concentration-response testing, biochemical assay, absorbance-based, actives from ultra-high-throughput screening (AID 540297); format: functional
T3 sequence (Q9GZU7 whole entry): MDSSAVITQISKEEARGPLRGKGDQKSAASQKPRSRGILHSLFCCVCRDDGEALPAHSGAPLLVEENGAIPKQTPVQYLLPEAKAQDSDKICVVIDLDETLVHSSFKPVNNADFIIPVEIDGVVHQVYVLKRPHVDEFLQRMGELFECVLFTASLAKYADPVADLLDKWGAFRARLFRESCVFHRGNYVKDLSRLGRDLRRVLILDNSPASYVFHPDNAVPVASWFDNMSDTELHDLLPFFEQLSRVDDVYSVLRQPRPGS

[6] = biological target: Heat shock protein HSP 90-alpha (Homo sapiens, UniProt P07900); format: functional, organism-based
[7] = cytotoxicity toward DRD oncogenic fibroblasts, dose response, cell-based, non-viral oncogenic, luminescence (AID 1934); format: functional; details: Homo sapiens
[8] = tested on: Streptococcus sp. 'group A'; test: growth inhibition of control SK(-) GAS strain, dose response, counter-screen for streptokinase expression inhibitor project, luminescence, kanamycin, BacTiterGlo, confirmation (AID 1900); format: functional, organism-based
[9] = tested on: BJ; test: cytotoxicity toward BJ-TERT-LT-ST fibroblasts, dose response, cell-based, RAS-independent, luminescence (AID 1935); format: functional; details: Homo sapiens;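 also: BJ fibroblasts immortalized with TERT plus LT and ST oncogenes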
[10] = tested on: BJ; test: cytotoxicity toward BJ-TERT fibroblasts, dose response, cell-based, RAS-independent, luminescence (AID 1933); format: functional; details: Homo sapiens
[11] = tested on: BJ; test: cells; format: functional, cell-based; details: Homo sapiens
[12] = tested on: Streptococcus; test: Group A Streptococcus viability loss, dose response, counter-screen for streptokinase expression inhibitor project, luminescence, BacTiterGlo (AID 1915); format: functional, organism-based;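 also: potency for reduction of bacterial viability or growth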
[13] = cytotoxicity in HEK-293T cells, dose response, cytotoxicity control for TCR NF-kB inhibitor project, luminescence, T-cell screen hits (AID 489026); format: functional, cell-based;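 also: cells exposed to compound about 14 hours before the viability readout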
[14] = biological target: Nucleotide-binding oligomerization domain-containing protein 2 (Homo sapiens, UniProt Q9HC29); test: NOD2 signaling inhibitors, cell-based, luminescence, uHTS, HEK293 (AID 1566); format: functional
Sequence of Nucleotide-binding oligomerization domain-containing protein 2 (Q9HC29 whole entry, the tested form may be a part): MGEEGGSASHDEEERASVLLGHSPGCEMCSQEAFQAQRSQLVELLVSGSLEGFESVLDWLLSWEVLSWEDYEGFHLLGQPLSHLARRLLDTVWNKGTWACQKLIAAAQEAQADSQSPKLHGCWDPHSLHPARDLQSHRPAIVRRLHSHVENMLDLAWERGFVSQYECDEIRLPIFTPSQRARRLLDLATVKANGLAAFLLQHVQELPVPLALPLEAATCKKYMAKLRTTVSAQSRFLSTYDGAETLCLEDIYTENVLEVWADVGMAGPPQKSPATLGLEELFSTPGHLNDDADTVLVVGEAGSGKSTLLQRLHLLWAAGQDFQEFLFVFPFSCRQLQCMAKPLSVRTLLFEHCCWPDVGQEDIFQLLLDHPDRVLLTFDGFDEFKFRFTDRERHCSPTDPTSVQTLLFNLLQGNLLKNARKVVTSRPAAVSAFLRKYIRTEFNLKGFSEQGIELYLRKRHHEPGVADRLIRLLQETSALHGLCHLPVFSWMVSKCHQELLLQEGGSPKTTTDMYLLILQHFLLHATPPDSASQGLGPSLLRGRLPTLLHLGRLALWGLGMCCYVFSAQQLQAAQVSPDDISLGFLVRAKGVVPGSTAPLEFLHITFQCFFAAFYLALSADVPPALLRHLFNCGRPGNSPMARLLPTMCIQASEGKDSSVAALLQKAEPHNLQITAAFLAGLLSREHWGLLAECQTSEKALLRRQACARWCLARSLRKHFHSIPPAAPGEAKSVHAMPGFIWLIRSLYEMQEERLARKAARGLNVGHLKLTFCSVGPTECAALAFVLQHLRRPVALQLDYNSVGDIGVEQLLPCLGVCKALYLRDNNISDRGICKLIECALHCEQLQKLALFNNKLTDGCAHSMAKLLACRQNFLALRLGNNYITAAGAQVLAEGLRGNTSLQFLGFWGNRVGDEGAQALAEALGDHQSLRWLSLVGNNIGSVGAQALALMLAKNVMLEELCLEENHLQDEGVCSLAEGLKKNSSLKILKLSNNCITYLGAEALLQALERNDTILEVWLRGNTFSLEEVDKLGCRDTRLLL

[15] = tested on: HEK293; test: cells; format: functional, cell-based; details: Homo sapiens
[16] = tested on: Vero; test: host cell cytotoxicity of antiviral hits, dose response, cytotoxicity control for West Nile virus antiviral project, secondary assay (AID 1650); format: functional; details: Chlorocebus sabaeus
[17] = tested on: HEK293; test: cells; format: functional, cell-based; details: Homo sapiens; remark: listed apart in the source
[18] = tested on: HEK293; test: NOD1 signaling inhibitors, primary screen, cell-based, luminescence, uHTS (AID 1578); format: functional; details: Homo sapiens
[19] = C. albicans growth with fluconazole, confirmation, fluorescence, retest (AID 2467); format: functional, cell-based
[20] = NIH-3T3 fibroblast cytotoxicity, dose response, cytotoxicity control, cell-based, fluorescence, Alamar Blue, secondary assay (AID 2327); format: functional;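 also: NIH-3T3 mouse fibroblasts cultured with fluconazole at 8 µg/mL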
[21] = tested on: INS1; test: beta cell apoptosis inhibitors, cytokine rescue, dose response, luminescence, retest (AID 449756); format: functional, cell-based; details: Rattus norvegicus;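 also: cell death triggered by IL-1 beta plus TNF-alpha plus IFN-gamma mixture; protective hits raise ATP signal compared with cytokine alone wells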
[22] = tested on: HEK293; test: cells; format: functional, cell-based; details: Homo sapiens; remark: listed apart in the source
[23] = tested on: HEK293; test: NOD2 signaling inhibitors in MDP-stimulated cells, cell-based, uHTS, luminescence (AID 2001); format: functional; details: Homo sapiens
[24] = biological target: T4, Sentrin-specific protease 7 (Homo sapiens, UniProt Q9BQF6); test: SENP7 protease inhibitors, SAR follow-up, biochemical, luminescence, set 2 (AID 588600); format: functional
T4 sequence (Q9BQF6 whole entry): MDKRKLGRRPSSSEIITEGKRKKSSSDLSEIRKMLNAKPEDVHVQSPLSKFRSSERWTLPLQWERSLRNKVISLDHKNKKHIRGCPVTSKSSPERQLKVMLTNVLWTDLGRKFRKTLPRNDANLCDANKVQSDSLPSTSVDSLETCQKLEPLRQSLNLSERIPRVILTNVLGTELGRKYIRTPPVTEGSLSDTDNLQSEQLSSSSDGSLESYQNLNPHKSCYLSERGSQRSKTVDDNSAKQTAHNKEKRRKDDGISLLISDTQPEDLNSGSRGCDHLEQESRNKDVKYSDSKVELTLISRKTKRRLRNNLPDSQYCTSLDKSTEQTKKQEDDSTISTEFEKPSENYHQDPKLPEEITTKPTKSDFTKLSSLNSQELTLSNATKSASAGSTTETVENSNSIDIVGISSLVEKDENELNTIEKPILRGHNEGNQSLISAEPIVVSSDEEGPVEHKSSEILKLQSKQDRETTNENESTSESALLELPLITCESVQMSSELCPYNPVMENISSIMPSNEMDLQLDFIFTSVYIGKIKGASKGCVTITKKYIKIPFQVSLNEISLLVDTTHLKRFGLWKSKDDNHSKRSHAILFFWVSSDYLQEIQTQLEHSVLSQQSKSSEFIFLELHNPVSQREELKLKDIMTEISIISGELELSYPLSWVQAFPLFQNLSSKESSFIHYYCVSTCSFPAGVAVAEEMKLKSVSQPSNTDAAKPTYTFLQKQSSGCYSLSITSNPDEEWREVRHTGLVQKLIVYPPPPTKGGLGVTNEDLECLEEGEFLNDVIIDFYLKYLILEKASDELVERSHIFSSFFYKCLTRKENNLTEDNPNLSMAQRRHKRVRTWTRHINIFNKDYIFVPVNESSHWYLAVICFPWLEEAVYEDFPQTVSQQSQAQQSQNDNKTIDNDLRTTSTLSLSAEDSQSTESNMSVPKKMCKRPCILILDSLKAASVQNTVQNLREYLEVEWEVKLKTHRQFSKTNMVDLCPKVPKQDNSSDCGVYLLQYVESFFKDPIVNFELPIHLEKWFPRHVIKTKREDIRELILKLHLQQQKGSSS

[25] = biological target: T5, Sentrin-specific protease 6 (Homo sapiens, UniProt Q9GZR1); test: SENP6 protease inhibitors, SAR follow-up, biochemical, luminescence, set 2 (AID 588598); format: functional
T5 sequence (Q9GZR1 whole entry): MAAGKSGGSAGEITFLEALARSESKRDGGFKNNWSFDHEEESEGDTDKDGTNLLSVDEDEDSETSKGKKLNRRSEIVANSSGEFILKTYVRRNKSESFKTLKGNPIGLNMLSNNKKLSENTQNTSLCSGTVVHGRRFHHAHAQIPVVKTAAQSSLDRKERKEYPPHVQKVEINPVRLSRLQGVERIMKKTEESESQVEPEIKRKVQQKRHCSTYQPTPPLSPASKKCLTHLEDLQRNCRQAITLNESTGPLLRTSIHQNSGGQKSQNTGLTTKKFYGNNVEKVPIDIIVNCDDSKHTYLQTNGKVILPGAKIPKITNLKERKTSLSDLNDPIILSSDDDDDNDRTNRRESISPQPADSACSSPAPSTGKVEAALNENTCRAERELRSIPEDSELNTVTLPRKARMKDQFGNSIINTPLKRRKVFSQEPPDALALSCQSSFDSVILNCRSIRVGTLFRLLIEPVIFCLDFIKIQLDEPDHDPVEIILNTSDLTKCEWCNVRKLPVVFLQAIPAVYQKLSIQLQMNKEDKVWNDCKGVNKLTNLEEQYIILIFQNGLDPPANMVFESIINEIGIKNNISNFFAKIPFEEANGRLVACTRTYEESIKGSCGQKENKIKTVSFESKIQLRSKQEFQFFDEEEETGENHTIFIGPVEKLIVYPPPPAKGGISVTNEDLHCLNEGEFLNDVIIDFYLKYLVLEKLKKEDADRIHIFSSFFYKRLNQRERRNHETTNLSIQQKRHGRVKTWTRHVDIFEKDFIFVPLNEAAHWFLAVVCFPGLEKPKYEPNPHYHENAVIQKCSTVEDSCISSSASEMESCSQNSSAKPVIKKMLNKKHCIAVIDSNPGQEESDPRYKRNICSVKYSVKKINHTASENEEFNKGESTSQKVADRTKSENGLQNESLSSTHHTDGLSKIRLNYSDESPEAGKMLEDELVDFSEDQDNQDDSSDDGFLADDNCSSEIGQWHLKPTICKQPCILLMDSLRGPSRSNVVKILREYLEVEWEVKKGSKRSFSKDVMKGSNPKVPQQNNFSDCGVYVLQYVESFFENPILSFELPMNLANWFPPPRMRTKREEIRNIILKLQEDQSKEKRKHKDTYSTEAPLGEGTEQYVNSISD

[26] = biological target: T6, Sentrin-specific protease 8 (Homo sapiens, UniProt Q96LD8); test: SENP8 protease inhibitors, SAR follow-up, biochemical, luminescence, set 2 (AID 588601); format: functional
T6 sequence (Q96LD8 whole entry): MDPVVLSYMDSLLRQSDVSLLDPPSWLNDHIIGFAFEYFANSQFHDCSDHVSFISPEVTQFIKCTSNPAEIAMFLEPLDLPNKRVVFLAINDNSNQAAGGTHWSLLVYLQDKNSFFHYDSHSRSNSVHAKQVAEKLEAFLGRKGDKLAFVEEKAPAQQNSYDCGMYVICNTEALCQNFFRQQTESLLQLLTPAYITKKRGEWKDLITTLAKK

[27] = biological target: T7, Caspase-3 (Homo sapiens, UniProt P42574); test: caspase-3 inhibitors as off-family protease, SAR follow-up, selectivity assay for SENP protease inhibitor project, biochemical, luminescence, set 2 (AID 588599); format: functional
T7 sequence (P42574 whole entry): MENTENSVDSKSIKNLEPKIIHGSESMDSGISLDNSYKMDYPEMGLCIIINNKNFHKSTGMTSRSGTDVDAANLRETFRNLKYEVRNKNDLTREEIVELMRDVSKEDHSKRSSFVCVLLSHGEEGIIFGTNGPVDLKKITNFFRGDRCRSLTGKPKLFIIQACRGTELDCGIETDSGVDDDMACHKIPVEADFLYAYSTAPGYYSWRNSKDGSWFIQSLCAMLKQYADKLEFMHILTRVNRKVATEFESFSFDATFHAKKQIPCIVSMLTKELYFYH

Sequence of Beta-galactosidase (Q8VNN2 whole entry): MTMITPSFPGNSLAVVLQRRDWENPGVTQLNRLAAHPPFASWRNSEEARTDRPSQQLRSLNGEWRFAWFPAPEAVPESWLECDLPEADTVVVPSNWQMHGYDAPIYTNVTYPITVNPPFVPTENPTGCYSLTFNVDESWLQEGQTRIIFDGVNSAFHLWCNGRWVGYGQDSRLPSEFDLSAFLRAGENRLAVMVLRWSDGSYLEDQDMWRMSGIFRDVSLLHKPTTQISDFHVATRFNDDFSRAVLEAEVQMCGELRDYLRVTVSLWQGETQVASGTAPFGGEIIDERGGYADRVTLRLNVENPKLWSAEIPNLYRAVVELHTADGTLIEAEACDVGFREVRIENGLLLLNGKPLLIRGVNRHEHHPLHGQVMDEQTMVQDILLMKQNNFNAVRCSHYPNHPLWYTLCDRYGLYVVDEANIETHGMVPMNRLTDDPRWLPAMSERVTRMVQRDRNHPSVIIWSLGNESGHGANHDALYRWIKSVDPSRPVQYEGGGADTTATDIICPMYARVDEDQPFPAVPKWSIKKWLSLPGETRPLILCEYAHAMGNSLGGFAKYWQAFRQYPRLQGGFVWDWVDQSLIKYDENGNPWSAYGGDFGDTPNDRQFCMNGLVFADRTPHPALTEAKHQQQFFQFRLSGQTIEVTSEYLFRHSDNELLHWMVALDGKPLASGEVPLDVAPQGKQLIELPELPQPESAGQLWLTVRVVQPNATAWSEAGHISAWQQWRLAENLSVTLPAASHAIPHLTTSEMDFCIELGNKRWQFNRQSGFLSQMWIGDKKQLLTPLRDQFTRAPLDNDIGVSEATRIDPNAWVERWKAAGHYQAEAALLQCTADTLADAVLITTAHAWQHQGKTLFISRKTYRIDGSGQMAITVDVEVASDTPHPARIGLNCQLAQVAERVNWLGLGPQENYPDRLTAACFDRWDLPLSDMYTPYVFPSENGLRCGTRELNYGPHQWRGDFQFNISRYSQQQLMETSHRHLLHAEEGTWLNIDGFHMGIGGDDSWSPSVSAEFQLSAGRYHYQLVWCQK

## O=C(CCCC(=O)Nc1cccc(Br)c1)N/N=C/c1cc([N+](=O)[O-])ccc1O
[1]
  EC50: > 40 µM (inactive)
[2]
  IC50: > 40 µM (not active)
[3]
  IC50: 7.42 µM (active)
[4]
  IC50: 10 µM (active)
[5]
  IC50: 6.26 µM (active)

## Oc1cccc2ccc(/C=C/c3ccccc3Cl)nc12
[1]
  EC50: > 40 µM (inactive)
[6]
  AC50: 11.6 µM (active)
[7]
  EC50: 32.6 µM (active)
[2]
  IC50: 32.3 µM (not active)
[8]
  EC50: 345 nM (active)
[9]
  EC50: > 150 µM (inconclusive)
[10]
  EC50: 12.9 µM (active)
[11]
  EC50: 28.5 µM (active)
[12]
  EC50: 1.3 µM (active)

## Cc1ccc(C)c(N=Nc2ccc(O)c3ncccc23)c1
[13]
  IC50: > 80 µM (inactive)
[14]
  EC50: > 20 µM (inactive)
[1]
  EC50: > 40 µM (inactive)
[15]
  IC50: > 20 µM (inactive)
[2]
  IC50: 9.84 µM (active)
[16]
  CC50: 6.64 µM (active)
[17]
  IC50: 1.89 µM (active)
[18]
  EC50: 4.12 µM (active)
[19]
  EC50: 1.57 µM (active)
[20]
  EC50: 17 µM (active)
[21]
  AC50: 1.29 µM (active)
[22]
  IC50: > 20 µM (inactive)
[23]
  IC50: 3 µM (active)

## CN(C)C(=O)C(=O)c1c(-c2ccccc2)[nH]c2ccc(Cl)cc12
[24]
  IC50: > 99 µM (inactive)
[25]
  IC50: > 99 µM (inactive)
[26]
  IC50: > 99 µM (inactive)
[27]
  IC50: > 99 µM (inactive)

## CNC(=O)C1Cc2ccccc2N1C(=O)C(=O)c1c(C)[nH]c2ccccc12 (stereo not given)
[24]
  IC50: > 99 µM (inactive)
[25]
  IC50: > 99 µM (inactive)
[26]
  IC50: > 99 µM (inactive)
[27]
  IC50: > 99 µM (inactive)
